# Patent US20080293583A1, “Methods for diagnosing mood disorders” (Wyeth, priority 2003, published 2008)
# System: progenitor stem cells in the subgranular zone (SGZ) of the hippocampus
# Test: BrdU immunostaining, long-term survivability of progenitor stem cells in SGZ
# Assay type: in vivo, rat
# Conditions: for number of surviving cells in the SGZ relative to saline controls / basal levels: 4 weeks after the last BrdU injection
# Method: Antidepressant treatment and BrdU dosing. Dosing of adult male Sprague Dawley rats was performed as described above for 14 days (n=10 rats per group). To evaluate the effect of chronic antidepressant treatment on proliferation of progenitor stem cells, 24 hours after the last antidepressant injection, rats were administered BrdU (Sigma, St. Louis, Mo.) (50 mg/kg rig ip injection twice a day) for 4 days prior to euthanesia. To evaluate the effect of chronic antidepressant treatment on survival of progenitor stem cells, a sub-group of rats were allowed to live for 4 weeks after BrdU injection. All rats were perfused through the ascending aorta with 50 ml of 0.9% saline, followed by 400 ml of freshly prepared 4% paraformaldehyde in PBS (pH 7.5). After 30-60 minutes post-perfusion, rat brains were removed and postfixed in 4% paraformaldehyde in PBS overnight, followed by immersion in 30% sucrose/PBS solution for 48-72 hours at 4° C. Brains were rapidly frozen on dry-ice and stored at −80° C. Brain sectioning and staining for BrdU immunoreactivity were performed as previously described by Malberg et al. (2000). Briefly, serial coronal sections of each brain were cut (35 μm thickness) through the entire hippocampus (stereotaxic plates 26-40 according to Paxinos, Watson and Emson, 1980) using a freezing microtome. Every sixth section throughout the hippocampus was processed for BrdU staining. Free-floating sections were maintained in 100 mM PBS (about 100 sections per brain). DNA denaturation of the sections was performed as follows: sections were treated with 50% formamide/50% 2×SSC (0.3 M NaCl/0.03 M sodium citrate) for 2 hours at 65° C., rinsed in PBS (2 times for 5 minutes at room temperature), incubated with 2 N HCl for 30 minutes, followed by 0.1 M boric acid buffer (pH 8.5) for 10 minutes and a final rinse in PBS. For BrdU immunostaining, sections were incubated with 3% H2O2 in PBS for 30 minutes, rinsed in PBS and blocked with 3% normal horse serum in 0.01% TritonX-100 for 30 minutes. Anti-mouse BrdU (1:250 Sigma) was applied to the free-floating sections and incubated overnight at 4° C. The sections were rinsed in PBS, incubated with biotinylated horse, anti-mouse IgG (Vector Lab) for 30 minutes and washed in PBS. ABC reagent complex (Vectastain Elite kit from Vector) was added (as per manufacturer's instructions) for 30 minutes, followed by rinsing in PBS and color development with DAB solution for 4 minutes. Sections were mounted on glass slides and coverslipped. All BrdU labeled cells in the subgranular zone (SGZ) were counted in each section by an experimenter blinded to the study code. All counts were performed at 200× magnification using a light microscope (Zeiss Axiovert 135). The total number of BrdU labeled cells per section were determined and multiplied by 12 to obtain the total number of cells per dentate gyrus. Comparative analyses between treatments were performed using a Tukey HSD post hoc analysis for multiple comparisons.
# In vivo studies were performed to measure the effects of antidepressant drug treatment on adult hippocampal neurogenesis by immunological methods. The method used to detect cell proliferation involved 5-bromo-2-deoxyuridine (BrdU) dosing twice a day for 4 days after a 2 week systemic administration of either saline, fluoxetine or venlafaxine. The presence of BrdU within the vicinity of dividing progenitor stem cells in the hippocampal region allowed for its incorporation and the detection of DNA synthesis (the more cell proliferation the more DNA synthesis). The number of BrdU-positive cells was visualized by immunoperoxidase staining. The BrdU immunostaining and quantitative results indicated a significant increase (˜33%) in the proliferation rate of progenitor stem cells in the subgranular zone (SGZ) of the hippocampus for both venlafaxine (P<0.01; n=5) and fluoxetine (P<0.01; n=5) versus saline controls. […]
SMILES,number of surviving cells in the SGZ relative to saline controls / basal levels (FIG. 1B),"number of surviving cells in the SGZ relative to saline controls / basal levels (FIG. 1B, listed as fluoxetine)",sustainability in the rate of proliferation and survivability of progenitor stem cells over basal levels (4 weeks after the last antidepressant dose),"overall number of surviving cells, venlafaxine versus fluoxetine (FIG. 1B, P<0.01)","more cells compared with fluoxetine (long-term survivability, venlafaxine versus fluoxetine)"
"CNCCC(Oc1ccc(C(F)(F)F)cc1)c1ccccc1 (stereo not drawn) [Fluoxetine, fluoxetine]",significant preservation of proliferative and survivability effects over basal levels,increased the number of surviving cells in the SGZ,,,
"COc1ccc(C(CN(C)C)C2(O)CCCCC2)cc1 (stereo not drawn) [Venlafaxine, venlafaxine]",increased the number of surviving cells in the SGZ,,80%,significant increase in the overall number of surviving cells,~40%
